Results reported in patent US8232407B2, “Nitrogenous heterocyclic compounds with insecticidal activity, and the preparation and use thereof” (East China University of Science and Technology, priority 2008, dated 2012).

How the values were obtained:
Format in all cases: in vivo
[1] = system: Aphis craccivoral; assay: Insecticidal activities to aphids, immersion method
Method in brief: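 Wingless adult aphids feeding on bean sprouts were dipped 5 s in 500 ppm compound (DMF stock diluted in 0.2 mL/L aqueous Triton X-100), blotted and held at 23° C. Dead counted at 24 h, three replicates; mortality corrected against Triton-only controls.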

[2] = system: Plutella xylostella; assay: Insecticidal activities to diamondback moth, feeding dipped leaves
Method in brief: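 Leaf-dip feeding assay: fresh cabbage leaves dipped 3 s in test solution, air-dried and fed to Plutella xylostella, 10 insects per treatment, three replicates, water control. Deaths counted after 24 h; mortality corrected against survival in the control group.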

[3] = system: Nilaparvata lugens; assay: Insecticidal activities to plant hopper, spraying method
Method in brief: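 Nilaparvata lugens, 10 insects per tumbler, sprayed with 2 ml compound in acetone at 0.79-500 ppm, three replicates, aqueous acetone control. Dead insects counted after 24 h; mortality corrected against control survival.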

[4] = system: Pseudaletia separate Walker; assay: Insecticidal activities to armyworm, leaf dipping and feeding
Method in brief: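 Maize leaves dipped 3 s in acetone-formulated compound at 500 down to 1.57 ppm, dried and fed to armyworms, 10 insects per treatment in triplicate, aqueous acetone as control. Mortality was counted after 24 hours and corrected against control survival.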

CC[N+]1=C(/C(=C\c2ccc[nH]2)[N+](=O)[O-])N(Cc2ccc(Cl)nc2)CC1.[Cl-] [Compound 295]
Aphis craccivoral Mortality (%) 500 ppm ([1]; in vivo): 100% | Plutella xylostella Mortality (%) 500 ppm ([2]; in vivo): 100% | Nilaparvata lugens Mortality (%) 500 ppm ([3]; in vivo): 100% | Pseudaletia separate Walker Mortality (%) 500 ppm ([4]; in vivo): 100%

CC(=C(C1=NCCN1Cc1ccc(Cl)nc1)[N+](=O)[O-])c1cc(Cl)cs1 [Compound 120]
Aphis craccivoral Mortality (%) 500 ppm ([1]; in vivo): 52% | Plutella xylostella Mortality (%) 500 ppm ([2]; in vivo): 68% | Nilaparvata lugens Mortality (%) 500 ppm ([3]; in vivo): 86% | Pseudaletia separate Walker Mortality (%) 500 ppm ([4]; in vivo): 59%

N#CC(=Cc1ccco1)C1=NCCN1Cc1ccc(Cl)nc1 [Compound 140]
Aphis craccivoral Mortality (%) 500 ppm ([1]; in vivo): 100% | Plutella xylostella Mortality (%) 500 ppm ([2]; in vivo): 100% | Nilaparvata lugens Mortality (%) 500 ppm ([3]; in vivo): 100% | Pseudaletia separate Walker Mortality (%) 500 ppm ([4]; in vivo): 100%

O=[N+]([O-])C(=Cc1ccc(Br)o1)C1=NCCN1Cc1cnc(Cl)s1 [Compound 72]
Aphis craccivoral Mortality (%) 500 ppm ([1]; in vivo): 100% | Plutella xylostella Mortality (%) 500 ppm ([2]; in vivo): 100% | Nilaparvata lugens Mortality (%) 500 ppm ([3]; in vivo): 100% | Pseudaletia separate Walker Mortality (%) 500 ppm ([4]; in vivo): 100%

O=[N+]([O-])C(=Cc1cc(Cl)c(Cl)o1)C1=NCCN1Cc1ccc(Cl)nc1 [Compound 8]
Aphis craccivoral Mortality (%) 500 ppm ([1]; in vivo): 100% | Plutella xylostella Mortality (%) 500 ppm ([2]; in vivo): 100% | Nilaparvata lugens Mortality (%) 500 ppm ([3]; in vivo): 100% | Pseudaletia separate Walker Mortality (%) 500 ppm ([4]; in vivo): 100%

C[N+]1=C(C(=Cc2ccc(CO)o2)[N+](=O)[O-])N(Cc2ccc(Cl)nc2)CC1.[Cl-] [Compound 258]
Aphis craccivoral Mortality (%) 500 ppm ([1]; in vivo): 100% | Plutella xylostella Mortality (%) 500 ppm ([2]; in vivo): 100% | Nilaparvata lugens Mortality (%) 500 ppm ([3]; in vivo): 100% | Pseudaletia separate Walker Mortality (%) 500 ppm ([4]; in vivo): 100%

Cc1ccc(C=C(C2=NCCCN2Cc2ccc(Cl)nc2)[N+](=O)[O-])o1 [Compound 57]
Aphis craccivoral Mortality (%) 500 ppm ([1]; in vivo): 100% | Plutella xylostella Mortality (%) 500 ppm ([2]; in vivo): 100% | Nilaparvata lugens Mortality (%) 500 ppm ([3]; in vivo): 78% | Pseudaletia separate Walker Mortality (%) 500 ppm ([4]; in vivo): 100%

O=[N+]([O-])C(=Cc1cc(Br)c(Br)o1)C1=NCCN1Cc1ccccc1 [Compound 110]
Aphis craccivoral Mortality (%) 500 ppm ([1]; in vivo): 58% | Plutella xylostella Mortality (%) 500 ppm ([2]; in vivo): 51% | Nilaparvata lugens Mortality (%) 500 ppm ([3]; in vivo): 23% | Pseudaletia separate Walker Mortality (%) 500 ppm ([4]; in vivo): 85%

O=[N+]([O-])C(=Cc1ccc(Cl)s1)C1=NCCN1Cc1ccc(Cl)nc1 [Compound 19]
Aphis craccivoral Mortality (%) 500 ppm ([1]; in vivo): 100% | Plutella xylostella Mortality (%) 500 ppm ([2]; in vivo): 100% | Nilaparvata lugens Mortality (%) 500 ppm ([3]; in vivo): 100% | Pseudaletia separate Walker Mortality (%) 500 ppm ([4]; in vivo): 100%

CC(=C(C1=NCCN1Cc1ccc(Cl)nc1)[N+](=O)[O-])c1ccsc1 [Compound 116]
Aphis craccivoral Mortality (%) 500 ppm ([1]; in vivo): 89% | Plutella xylostella Mortality (%) 500 ppm ([2]; in vivo): 64% | Nilaparvata lugens Mortality (%) 500 ppm ([3]; in vivo): 94% | Pseudaletia separate Walker Mortality (%) 500 ppm ([4]; in vivo): 76%

O=[N+]([O-])C(=Cc1ccc(Cl)nc1)C1=NCCN1Cc1ccc(Cl)nc1 [Compound 40]
Aphis craccivoral Mortality (%) 500 ppm ([1]; in vivo): 45% | Plutella xylostella Mortality (%) 500 ppm ([2]; in vivo): 56% | Nilaparvata lugens Mortality (%) 500 ppm ([3]; in vivo): 44% | Pseudaletia separate Walker Mortality (%) 500 ppm ([4]; in vivo): 67%

CC(=C(C1=NCCN1C(C)c1ccc(Cl)nc1)[N+](=O)[O-])c1ccc(Br)o1 (racemic) [Compound 137]
Aphis craccivoral Mortality (%) 500 ppm ([1]; in vivo): 98% | Plutella xylostella Mortality (%) 500 ppm ([2]; in vivo): 100% | Nilaparvata lugens Mortality (%) 500 ppm ([3]; in vivo): 100% | Pseudaletia separate Walker Mortality (%) 500 ppm ([4]; in vivo): 100%

CC(=C(C1=NCCN1Cc1ccc(Cl)nc1)[N+](=O)[O-])c1ccc(C)o1 [Compound 114]
Aphis craccivoral Mortality (%) 500 ppm ([1]; in vivo): 92% | Plutella xylostella Mortality (%) 500 ppm ([2]; in vivo): 30% | Nilaparvata lugens Mortality (%) 500 ppm ([3]; in vivo): 100% | Pseudaletia separate Walker Mortality (%) 500 ppm ([4]; in vivo): 10%

O=[N+]([O-])C(=Cc1sc(Cl)cc1Cl)C1=NCCN1Cc1ccc(Cl)nc1 [Compound 24]
Aphis craccivoral Mortality (%) 500 ppm ([1]; 500 ppm, immersion method): 100% | Plutella xylostella Mortality (%) 500 ppm ([2]; 500 ppm, feeding dipped leaves, counted after 24 hours): 100% | Nilaparvata lugens Mortality (%) 500 ppm ([3]; 500 ppm, spraying method, counted after 24 hours): 100% | Pseudaletia separate Walker Mortality (%) 500 ppm ([4]; 500 ppm, leaf dipping and feeding, counted after 24 hours): 100%

CC(=C(C1=NCCN1C(C)c1ccc(Cl)nc1)[N+](=O)[O-])c1cccs1 (racemic) [Compound 138]
Aphis craccivoral Mortality (%) 500 ppm ([1]; in vivo): 100% | Plutella xylostella Mortality (%) 500 ppm ([2]; in vivo): 100% | Nilaparvata lugens Mortality (%) 500 ppm ([3]; in vivo): 100% | Pseudaletia separate Walker Mortality (%) 500 ppm ([4]; in vivo): 100%

CCN(Cc1ccc(Cl)nc1)C(=N\C)/C(=C\c1ccco1)[N+](=O)[O-] [Compound 151, N-((6-chloropyridin-3-yl)methyl)-N-ethyl-3-(furan-2-yl)-N′-methyl-2-nitro acrylamidine]
mortality at 500 ppm ([1]; Aphis, 24 h, read-out: Aphis craccivoral Mortality (%) 500 ppm): 76% | mortality at 500 ppm ([2]; Plutella xylostella, in Brassica oleracea, 24 h, read-out: Plutella xylostella Mortality (%) 500 ppm): 79% | mortality at 500 ppm ([3]; Nilaparvata lugens, 24 h, read-out: Nilaparvata lugens Mortality (%) 500 ppm): 87% | mortality at 500 ppm ([4]; Zea mays, foliar, 24 h, read-out: Pseudaletia separate Walker Mortality (%) 500 ppm): 86%

O=[N+]([O-])C(=Cc1cc(Br)cs1)C1=NCCN1Cc1ccc(Cl)nc1 [Compound 22]
Aphis craccivoral Mortality (%) 500 ppm ([1]; in vivo): 100% | Plutella xylostella Mortality (%) 500 ppm ([2]; in vivo): 100% | Nilaparvata lugens Mortality (%) 500 ppm ([3]; in vivo): 100% | Pseudaletia separate Walker Mortality (%) 500 ppm ([4]; in vivo): 100%

C[N+]1=C(C(=Cc2ccc([N+](=O)[O-])o2)[N+](=O)[O-])N(Cc2cnc(Cl)s2)CC1.[Cl-] [Compound 277]
Aphis craccivoral Mortality (%) 500 ppm ([1]; in vivo): 100% | Plutella xylostella Mortality (%) 500 ppm ([2]; in vivo): 100% | Nilaparvata lugens Mortality (%) 500 ppm ([3]; in vivo): 100% | Pseudaletia separate Walker Mortality (%) 500 ppm ([4]; in vivo): 100%

C[N+]1=C(C(=Cc2oc(Br)cc2Br)[N+](=O)[O-])N(Cc2ccc(Cl)nc2)CC1.[Cl-] [Compound 254]
Aphis craccivoral Mortality (%) 500 ppm ([1]; in vivo): 100% | Plutella xylostella Mortality (%) 500 ppm ([2]; in vivo): 100% | Nilaparvata lugens Mortality (%) 500 ppm ([3]; in vivo): 100% | Pseudaletia separate Walker Mortality (%) 500 ppm ([4]; in vivo): 100%

N#CC(=Cc1ccsc1)C1=NCCN1Cc1ccc(Cl)nc1 [Compound 147]
Aphis craccivoral Mortality (%) 500 ppm ([1]; in vivo): 100% | Plutella xylostella Mortality (%) 500 ppm ([2]; in vivo): 100% | Nilaparvata lugens Mortality (%) 500 ppm ([3]; in vivo): 100% | Pseudaletia separate Walker Mortality (%) 500 ppm ([4]; in vivo): 100%

O=[N+]([O-])C(=Cc1cc(Br)cs1)C1=NCCCN1Cc1ccc(Cl)nc1 [Compound 67]
Aphis craccivoral Mortality (%) 500 ppm ([1]; in vivo): 65% | Plutella xylostella Mortality (%) 500 ppm ([2]; in vivo): 100% | Nilaparvata lugens Mortality (%) 500 ppm ([3]; in vivo): 83% | Pseudaletia separate Walker Mortality (%) 500 ppm ([4]; in vivo): 90%

O=[N+]([O-])C(=Cc1oc(Cl)cc1Cl)C1=NCCCN1Cc1ccc(Cl)nc1 [Compound 54]
Aphis craccivoral Mortality (%) 500 ppm ([1]; in vivo): 100% | Plutella xylostella Mortality (%) 500 ppm ([2]; in vivo): 100% | Nilaparvata lugens Mortality (%) 500 ppm ([3]; in vivo): 100% | Pseudaletia separate Walker Mortality (%) 500 ppm ([4]; in vivo): 100%

O=[N+]([O-])C(=Cc1cc(Cl)cs1)C1=NCCCN1Cc1ccc(Cl)nc1 [Compound 66]
Aphis craccivoral Mortality (%) 500 ppm ([1]; in vivo): 56% | Plutella xylostella Mortality (%) 500 ppm ([2]; in vivo): 100% | Nilaparvata lugens Mortality (%) 500 ppm ([3]; in vivo): 87% | Pseudaletia separate Walker Mortality (%) 500 ppm ([4]; in vivo): 87%

C[N+]1=C(C(=Cc2cc(Cl)c(Cl)s2)[N+](=O)[O-])N(Cc2ccc(Cl)nc2)CC1.[Cl-] [Compound 266]
Aphis craccivoral Mortality (%) 500 ppm ([1]; in vivo): 100% | Plutella xylostella Mortality (%) 500 ppm ([2]; in vivo): 100% | Nilaparvata lugens Mortality (%) 500 ppm ([3]; in vivo): 100% | Pseudaletia separate Walker Mortality (%) 500 ppm ([4]; in vivo): 100%

CC(=C(C1=NCCN1Cc1ccc(Cl)nc1)[N+](=O)[O-])c1ccc([N+](=O)[O-])o1 [Compound 113]
Aphis craccivoral Mortality (%) 500 ppm ([1]; in vivo): 80% | Plutella xylostella Mortality (%) 500 ppm ([2]; in vivo): 100% | Nilaparvata lugens Mortality (%) 500 ppm ([3]; in vivo): 100% | Pseudaletia separate Walker Mortality (%) 500 ppm ([4]; in vivo): 100%

Cc1ccc(C=C(C2=NCCN2Cc2ccc(Cl)nc2)[N+](=O)[O-])o1 [Compound 12]
Aphis craccivoral Mortality (%) 500 ppm ([1]; in vivo): 100% | Plutella xylostella Mortality (%) 500 ppm ([2]; in vivo): 100% | Nilaparvata lugens Mortality (%) 500 ppm ([3]; in vivo): 100% | Pseudaletia separate Walker Mortality (%) 500 ppm ([4]; in vivo): 100%

O=[N+]([O-])C(=Cc1ccc(CO)o1)C1=NCCN1CC1CCOC1 (stereo not drawn) [Compound 102]
Aphis craccivoral Mortality (%) 500 ppm ([1]; in vivo): 75% | Plutella xylostella Mortality (%) 500 ppm ([2]; in vivo): 97% | Nilaparvata lugens Mortality (%) 500 ppm ([3]; in vivo): 89% | Pseudaletia separate Walker Mortality (%) 500 ppm ([4]; in vivo): 89%
